Measurements as given in PMC12787479, “Steam Explosion as a Green Pretreatment Strategy to Enhance Total Phenolics Release and Biological Activities in Potentilla discolor Bunge Stems” (Molecules, 2025).
Marks after values point to notes of the source that are not given here.

Assays:
Format in all cases: biochemical
[1] = FRAP reduction assay (ferric reducing antioxidant power); settings: absorbance at 700 nm at a concentration of 600 μg/mL
Protocol: Extraction solutions of PDB stems at 0.4, 0.6, 0.8, 1.0, or 1.2 mg/mL (0.1 mL each) were mixed with an equal volume (0.1 mL) of 30 μmol/mL K3[Fe(CN)6] solution (1:1, v/v) and incubated at 50 °C for 20 min. Then, 0.2 mL of 10% (w/v) trichloroacetic acid (TCA) solution was added, and the resulting mixture was defined as solution A. Finally, 0.1 mL of solution A was mixed with 0.1 mL of 3.4 μmol/mL FeCl3 solution, and the absorbance of the mixture was measured at 700 nm. […] All experiments were performed in triplicate, and results are expressed as mean ± SD.

[2] = DPPH free radical scavenging assay; settings: extract obtained under optimized extraction conditions; 25 °C, 30 min, 517 nm
Protocol: DPPH ethanol solution (0.12 μmol/mL, 0.1 mL) was mixed with 0.1 mL different concentrations of PDB stem solutions (10, 25, 50, 75, and 100 μg/mL). Incubation was carried out in a dark environment at 25 °C for 30 min. […] The absorbance values were measured at 517 nm using an enzyme meter. All experiments were performed in triplicate, and results are expressed as mean ± standard deviation (SD). The calculation formula was as follows.(3) Radical scavenging rate %=[…]×100% where Ac was the absorbance of blank group; As was the absorbance of PDB stem group, respectively. […] All data were represented as mean ± standard deviation (SD) and the significant statistical differences was determined by a one-way ANOVA test using SPSS version 22.0. Different lowercase letters were regarded as significant differences (p < 0.05).

[3] = ABTS free radical scavenging assay; settings: extract obtained under optimized extraction conditions; 30 min dark, 734 nm
Protocol: The solution was then diluted fivefold before use. […] For standard curve construction, ascorbic acid solutions at concentrations of 2, 4, 8, 15, 25, and 50 μg/mL were treated in the same manner. All experiments were performed in triplicate, and results were expressed as mean ± SD. The absorbance values were measured at 734 nm, and the scavenging rate was calculated using Equation (1). […] All data were represented as mean ± standard deviation (SD) and the significant statistical differences was determined by a one-way ANOVA test using SPSS version 22.0. Different lowercase letters were regarded as significant differences (p < 0.05).

- DPPH·IC50 [2]: 3.47 ± 0.02 ^a μg/mL
- ABTS·IC50 [3]: 20.71 ± 0.42 ^a μg/mL
Compound: O=C1O[C@H]([C@@H](O)CO)C(O)=C1O [Ascorbic acid]
- FRAP (A700, 600 μg/mL) [1]: 3.17 ± 0.05 ^a
- FRAP (A700, 600 μg/mL) ([1]; listed as ascorbic acid): 3.17 ± 0.05
